Tested on: Loblolly pine (Pinus taeda) embryogenic cell lines
Test: Biolistic transformation and selection of transformed sublines with or without ABA in the selection medium (Example 1)
Assay type: cell-based
Source text: To prepare for gene transfer, a sterile fabric support (in this example PECAP® fabric support, commercially available from SEFAR Inc.) was placed in a sterile Buchner funnel and one to five milliliters of embryogenic suspension was pipetted onto the fabric support such that the embryogenic tissue was evenly distributed over the surface. The liquid medium was suctioned from the tissues using a mild vacuum. The fabric support with embryogenic tissue was removed from the Buchner funnel and placed on a GELRITE® gelling agent solidified DCR3 preparation medium (Table 2) in 100×25 mm plastic petri dishes. Dishes were incubated in a dark growth chamber at 23°±2° C. for about 24-48 hours.
DNA was transferred into the tissues by the biolistic method described in U.S. patent application Ser. No. 09/318,136 filed on 25 May 1999 and New Zealand Patent No. 336149, each incorporated herein by reference, using the PDS-1000/He BIOLISTICS® Particle Delivery System (available from Bio-Rad Laboratories). The DNAs of interest, here containing the visual marker gene uidA and the selection gene nptII, were precipitated onto the surface of gold microparticles, which were subsequently accelerated toward embryogenic tissue to penetrate the cell walls. Once inside the cells, DNA is released from the carrier particles and integrated randomly into the chromosomes.
The petri dishes with the fabric support and embryonic tissues were then placed into the interior of the PDS 1000/He BIOLISTICS® device and vacuum applied to a level of 28 inches Hg. The gold particles carrying the DNA were accelerated toward the embryogenic tissue following a helium build-up and bursting regulated by a 1550 psi rupture disk. In the PDS-1000/He BIOLISTICS® device the gap between the rupture disk and the macrocarrier (gap distance) was five mm and the macrocarrier travel distance was 13 mm. Following DNA transfer the petri dishes containing the fabric support and tissues were incubated in a dark growth chamber at 23°±2° C. for about 24 hours. The tissues and fabric support were transferred to semi-solid maintenance medium, DCR1 (Table 2) to recover from carrier particle bombardment and incubated in a dark growth chamber at 23°±2° C. for a period of about seven days. The tissues and fabric support were transferred to a selection medium, semi-solid maintenance medium DCR1 containing a level of selection agent inhibitory to the growth of non-transformed cells. In this and subsequent examples the selection agent used was GENETICIN® antibiotic at 15-30 mg/l. The plates were incubated in a dark growth chamber at 23°±2° C. for about six to twelve weeks with the fabric supports containing the tissues being transferred to the same fresh culture medium every 2-3 weeks. […]

Which results are given for `CC1=CC(=O)CC(C)(C)[C@@]1(O)/C=C/C(C)=C\C(=O)O` [ABA, abscisic acid]?
stable transformants after nine weeks of selection (10 mg/L ABA in medium only during the first three weeks of selection): Stable transformants were detected; stable transformants after nine weeks of selection (ABA in selection medium throughout the entire nine-week selection period): more transformants were detected; transformants from a cell line of an elite family, progeny of P. taeda elite line 7-56 (ABA in the selection medium vs none): observed only on treatments that had contained ABA in the selection medium; number of transformants obtained (ABA present during the entire period of transfer, all lines tested): equal to or greater than the number obtained for any other treatment

Source: patent publication US6964870B2, “Enhanced selection of genetically modified pine embryogenic tissue” (MeadWestvaco Corporation, priority 2000, dated 2005)
